Experimental findings from patent EP0691985B1, “[…]” (MERRELL PHARMACEUTICALS INC., priority 1993, dated 1994) are described below.

Assay [1] has as its system Endothelin Converting Enzyme (ECE). Particulars: read-out: IC50 (concentration inhibiting 50% of the effect of pro-ETl 10^-6M); rat striatum slices; pro-ET-l 10^-6M; [3H]-IPl accumulation; determined graphically.
From the text: In vitro Endothelin Converting Enzyme (ECE) assay via IPl formation in rat brain slices. This assay measures the enzymatic activity responsible for the generation of functional ET-l from pro-ET-l by measuring the stimulation of phosphatidyl inositol turnover as a marker of ET-l effects:
The precursor of ET-l, i.e., proendothelin-l (pro-ET-l), is unable to stimulate the phosphatidyl inositol turnover unless it is cleaved by a specific phosphoramidon sensitive protease, i.e., endothelin converting enzyme (ECE). […] For this assay, an adaptation of the procedure of Brown et al., J. Neurochem., 42:1379, 1984, was used.
The exact concentration of these solutions was checked by absorbance spectrophotometry at 280 nm, using the equation C = A / L ε280 [formula] (with C the concentration of the peptide in solution, A the absorbance measured, L the optical path length of the solution and ε280 the extinction coefficient of the peptide in solution (8370 and 7025 M^-1cm^-1 for pro-ET-l and ET-l, respectively)]. The stock solutions were then aliquoted, lyophilized and stored at -20°C. The peptides were redissolved and diluted in water on the day of the experiment (peptides for other tests also prepared by this method ). […]
In these conditions the stimulation of phosphatidyl inositol turnover by pro-ET-l can be assessed by measuring the amount of accumulated [^3H]-IPl.
For assay [2], the system named is ET receptors. Briefly: Effect of ET-l on phosphatidyl inositol turnover (IPl formation) in rat brain slices, counter-test. Particulars: rat striatum slices, ETl 10^-6M. The assay is classed as cell-based. On the procedure: The buffer was changed every 15 minutes.

As for `CC(C)C[C@H](NP(=O)(O)O[C@@H]1O[C@@H](C)[C@H](O)[C@@H](O)[C@H]1O)C(=O)N[C@@H](Cc1c[nH]c2ccccc12)C(=O)O` [phosphoramidon], the IC50 was 6.4 ± 1.1 µM in assay [1] and above 30 µM in assay [2] ([3H]-IPl accumulation, determined graphically, read-out: RC50 (concentration reducing 50% of the effect of ETl 10^-6M)). In assay [2] (recorded when RC50 >30 µM (up to 3 × 10^-5M)), the “% of maximal reduction observed” value is listed as 75 ± 9%.
